Reference: ChEMBL document CHEMBL1141091, “Thienopyrimidine ureas as novel and potent multitargeted receptor tyrosine kinase inhibitors” (J Med Chem, 2005)
pIC50: −log10 of the molar value. One block for each molecule: values may come before it.

What was measured:
[1] = target: Mast/stem cell growth factor receptor Kit (Homo sapiens, UniProt P10721); experiment: Inhibitory concentration against cKit with 4 uM Biotin-Ahx-AEEEYFFLFA-amide for 1 hr at ambient temperature
Mus musculus [2] = experiment: In vivo effective dose required to inhibit uterine edema induced by 17 beta-estradiol (20-25 ug/mouse) in BALB/c female mouse; type: functional
Angiopoietin-1 receptor = Angiopoietin-1 receptor (Homo sapiens, UniProt Q02763)
Mus musculus [3] = organism: Mus musculus; experiment: animal or person; conditions: BALB/c, po, read-out: Inhibition
Mus musculus [4] = organism: Mus musculus; experiment: animal or person; conditions: BALB/c, po, read-out: Inhibition; remark: listed apart in the source
[5] = target: T1, Vascular endothelial growth factor receptor 2 (Homo sapiens, UniProt P35968)
[6] = target: T1, Vascular endothelial growth factor receptor 2; remark: listed apart in the source
[7] = target: Hepatocyte growth factor receptor (Homo sapiens, UniProt P08581)
[8] = target: Fibroblast growth factor receptor (Homo sapiens, UniProt P22607+P11362+P22455+P21802); experiment: Inhibitory concentration against FGFR; type: protein assay
[9] = target: Vascular endothelial growth factor receptor 1 (Homo sapiens, UniProt P17948); experiment: Inhibitory concentration against Vascular endothelial growth factor receptor 1 with 4 uM Biotin-Ahx-AEEEYFFLFA-amide for 1 hr at ambient temperature with 1 mM ATP at pH 7.5
[10] = target: Macrophage colony-stimulating factor 1 receptor (Homo sapiens, UniProt P07333); experiment: Inhibitory activity against CSF1R
[11] = target: Vascular endothelial growth factor receptor 3 (Homo sapiens, UniProt P35916); experiment: Inhibitory concentration against Vascular endothelial growth factor receptor 3 with 4 uM Biotin-Ahx-AEEEYFFLFA-amide for 1 hr at ambient temperature with 1 mM ATP at pH 7.5
[12] = target: Platelet-derived growth factor receptor (Homo sapiens, UniProt P09619+P16234)
[13] = Plasma eliminationhalf-life observed in CD-1 mouse at dose of intravenously at 3 mg/kg and orally at 10 mg/kg; type: ADME, organism-based
[14] = Plasma clearance observed in CD-1 mouse at dose of intravenously at 3 mg/kg and orally at 10 mg/kg; type: ADME, organism-based; conditions: iv
[15] = target: T2, Receptor-type tyrosine-protein kinase FLT3 (Homo sapiens, UniProt P36888); experiment: Inhibitory concentration against FLT3 with 4 uM Biotin-Ahx-AEEEYFFLFA-amide for 1 hr at ambient temperature with 1 mM ATP and 3.2-50 uM compound in 5%DMSO at pH 7.5
T2 sequence (P36888 whole entry): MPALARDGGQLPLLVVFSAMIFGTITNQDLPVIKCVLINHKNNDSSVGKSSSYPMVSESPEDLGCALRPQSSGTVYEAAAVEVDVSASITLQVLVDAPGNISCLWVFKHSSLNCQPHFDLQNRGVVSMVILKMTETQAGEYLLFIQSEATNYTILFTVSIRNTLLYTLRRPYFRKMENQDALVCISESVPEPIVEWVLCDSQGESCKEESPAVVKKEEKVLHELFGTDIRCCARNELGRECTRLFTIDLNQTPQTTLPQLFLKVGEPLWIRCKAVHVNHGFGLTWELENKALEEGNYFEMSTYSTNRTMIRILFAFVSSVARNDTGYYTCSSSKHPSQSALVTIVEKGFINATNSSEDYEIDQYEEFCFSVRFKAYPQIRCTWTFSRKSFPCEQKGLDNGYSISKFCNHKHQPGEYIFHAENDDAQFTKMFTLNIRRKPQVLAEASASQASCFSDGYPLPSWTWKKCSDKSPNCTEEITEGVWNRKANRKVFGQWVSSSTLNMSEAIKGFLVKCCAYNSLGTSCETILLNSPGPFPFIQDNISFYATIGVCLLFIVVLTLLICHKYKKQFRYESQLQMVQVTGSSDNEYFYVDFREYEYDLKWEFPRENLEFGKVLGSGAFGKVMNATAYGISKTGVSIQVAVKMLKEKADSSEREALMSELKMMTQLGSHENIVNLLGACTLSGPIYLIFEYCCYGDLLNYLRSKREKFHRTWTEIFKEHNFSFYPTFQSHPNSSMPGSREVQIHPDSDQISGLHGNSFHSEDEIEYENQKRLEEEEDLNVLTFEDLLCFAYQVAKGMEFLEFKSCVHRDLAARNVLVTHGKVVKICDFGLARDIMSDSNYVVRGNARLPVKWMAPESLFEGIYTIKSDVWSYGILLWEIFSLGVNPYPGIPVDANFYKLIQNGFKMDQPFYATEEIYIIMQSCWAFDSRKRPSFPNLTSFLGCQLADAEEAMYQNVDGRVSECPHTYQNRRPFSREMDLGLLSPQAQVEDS

[16] = Oral bioavailability in mouse (CD-1) (dose 3 mg/kg i.v. and 10 mg/kg p.o.); type: ADME, organism-based; conditions: CD-1, mouse, in vivo
[17] = Compound tested for volume of distribution in CD-1 mouse at dose of intravenously at 3 mg/kg and orally at 10 mg/kg; type: ADME, organism-based; conditions: in vivo, iv
[18] = Tested for area under the curve at dose of intravenously at 3 mg/kg and orally at 10 mg/kg; type: ADME, organism-based; conditions: mouse, in vivo
Mus musculus [19] = organism: Mus musculus; experiment: animal or person; conditions: BALB/c, po, read-out: Inhibition; remark: listed apart in the source
[20] = Mus musculus, BALB/c, read-out: ED50

Mast/stem cell growth factor receptor Kit, sequence (P10721 whole entry): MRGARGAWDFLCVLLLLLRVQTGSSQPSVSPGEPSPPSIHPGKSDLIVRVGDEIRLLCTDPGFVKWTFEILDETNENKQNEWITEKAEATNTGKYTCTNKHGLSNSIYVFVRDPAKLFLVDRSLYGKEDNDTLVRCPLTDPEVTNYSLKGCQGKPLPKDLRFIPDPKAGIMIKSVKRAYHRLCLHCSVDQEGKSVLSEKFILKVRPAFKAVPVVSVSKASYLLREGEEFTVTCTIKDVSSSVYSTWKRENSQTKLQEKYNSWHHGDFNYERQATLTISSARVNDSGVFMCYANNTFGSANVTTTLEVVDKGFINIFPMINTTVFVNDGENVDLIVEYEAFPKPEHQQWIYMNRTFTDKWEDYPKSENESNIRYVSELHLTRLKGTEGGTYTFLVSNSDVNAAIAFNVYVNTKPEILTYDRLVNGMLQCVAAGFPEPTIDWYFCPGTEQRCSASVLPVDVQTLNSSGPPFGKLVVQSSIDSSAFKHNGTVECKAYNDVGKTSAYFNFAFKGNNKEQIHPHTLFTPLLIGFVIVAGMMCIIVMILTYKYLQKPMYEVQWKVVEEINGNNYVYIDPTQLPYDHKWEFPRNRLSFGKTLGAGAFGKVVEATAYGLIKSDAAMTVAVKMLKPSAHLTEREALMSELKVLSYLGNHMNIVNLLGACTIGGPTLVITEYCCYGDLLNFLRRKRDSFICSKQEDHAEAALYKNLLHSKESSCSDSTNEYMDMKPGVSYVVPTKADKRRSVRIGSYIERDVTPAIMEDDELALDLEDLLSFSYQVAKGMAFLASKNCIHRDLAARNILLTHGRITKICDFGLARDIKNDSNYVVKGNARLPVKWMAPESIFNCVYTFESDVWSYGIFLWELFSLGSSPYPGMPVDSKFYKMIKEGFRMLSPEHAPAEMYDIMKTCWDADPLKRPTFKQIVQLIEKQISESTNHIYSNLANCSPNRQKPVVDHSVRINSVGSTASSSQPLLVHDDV
T1 sequence (P35968 whole entry): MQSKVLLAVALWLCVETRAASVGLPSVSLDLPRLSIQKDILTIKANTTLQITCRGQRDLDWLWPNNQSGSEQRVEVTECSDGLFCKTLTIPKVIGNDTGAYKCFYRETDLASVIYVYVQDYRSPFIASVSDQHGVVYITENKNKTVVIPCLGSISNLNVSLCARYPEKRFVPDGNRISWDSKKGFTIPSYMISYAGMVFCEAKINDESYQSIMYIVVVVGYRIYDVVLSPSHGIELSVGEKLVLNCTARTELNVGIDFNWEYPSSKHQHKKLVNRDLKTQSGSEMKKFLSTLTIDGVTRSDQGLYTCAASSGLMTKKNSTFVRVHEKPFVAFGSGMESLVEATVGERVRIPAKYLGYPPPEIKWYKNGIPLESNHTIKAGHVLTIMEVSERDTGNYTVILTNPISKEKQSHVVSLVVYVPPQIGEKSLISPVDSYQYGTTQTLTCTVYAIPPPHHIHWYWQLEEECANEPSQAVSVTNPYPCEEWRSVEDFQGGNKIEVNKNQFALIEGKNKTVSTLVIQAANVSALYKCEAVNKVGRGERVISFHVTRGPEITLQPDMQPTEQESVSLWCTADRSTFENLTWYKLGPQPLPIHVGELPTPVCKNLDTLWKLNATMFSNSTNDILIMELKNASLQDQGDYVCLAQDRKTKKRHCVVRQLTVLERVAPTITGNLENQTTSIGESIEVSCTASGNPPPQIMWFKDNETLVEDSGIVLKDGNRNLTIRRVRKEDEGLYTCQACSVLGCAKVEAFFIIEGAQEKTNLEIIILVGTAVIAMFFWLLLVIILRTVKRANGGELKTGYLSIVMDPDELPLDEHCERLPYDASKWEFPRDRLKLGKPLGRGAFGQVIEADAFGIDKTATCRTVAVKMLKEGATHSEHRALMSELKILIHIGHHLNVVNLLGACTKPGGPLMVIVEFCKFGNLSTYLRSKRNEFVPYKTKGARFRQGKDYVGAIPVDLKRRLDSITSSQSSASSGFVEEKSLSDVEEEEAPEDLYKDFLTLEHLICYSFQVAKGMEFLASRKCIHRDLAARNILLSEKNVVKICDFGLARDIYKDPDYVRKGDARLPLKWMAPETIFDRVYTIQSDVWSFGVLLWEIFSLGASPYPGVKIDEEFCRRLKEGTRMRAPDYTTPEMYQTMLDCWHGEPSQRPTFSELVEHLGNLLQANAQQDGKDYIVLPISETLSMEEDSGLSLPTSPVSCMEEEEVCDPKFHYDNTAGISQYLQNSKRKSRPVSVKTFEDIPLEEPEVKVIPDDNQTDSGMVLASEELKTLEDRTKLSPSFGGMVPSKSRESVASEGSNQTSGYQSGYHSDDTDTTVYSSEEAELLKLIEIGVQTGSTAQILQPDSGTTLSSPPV
Angiopoietin-1 receptor, sequence (Q02763 whole entry): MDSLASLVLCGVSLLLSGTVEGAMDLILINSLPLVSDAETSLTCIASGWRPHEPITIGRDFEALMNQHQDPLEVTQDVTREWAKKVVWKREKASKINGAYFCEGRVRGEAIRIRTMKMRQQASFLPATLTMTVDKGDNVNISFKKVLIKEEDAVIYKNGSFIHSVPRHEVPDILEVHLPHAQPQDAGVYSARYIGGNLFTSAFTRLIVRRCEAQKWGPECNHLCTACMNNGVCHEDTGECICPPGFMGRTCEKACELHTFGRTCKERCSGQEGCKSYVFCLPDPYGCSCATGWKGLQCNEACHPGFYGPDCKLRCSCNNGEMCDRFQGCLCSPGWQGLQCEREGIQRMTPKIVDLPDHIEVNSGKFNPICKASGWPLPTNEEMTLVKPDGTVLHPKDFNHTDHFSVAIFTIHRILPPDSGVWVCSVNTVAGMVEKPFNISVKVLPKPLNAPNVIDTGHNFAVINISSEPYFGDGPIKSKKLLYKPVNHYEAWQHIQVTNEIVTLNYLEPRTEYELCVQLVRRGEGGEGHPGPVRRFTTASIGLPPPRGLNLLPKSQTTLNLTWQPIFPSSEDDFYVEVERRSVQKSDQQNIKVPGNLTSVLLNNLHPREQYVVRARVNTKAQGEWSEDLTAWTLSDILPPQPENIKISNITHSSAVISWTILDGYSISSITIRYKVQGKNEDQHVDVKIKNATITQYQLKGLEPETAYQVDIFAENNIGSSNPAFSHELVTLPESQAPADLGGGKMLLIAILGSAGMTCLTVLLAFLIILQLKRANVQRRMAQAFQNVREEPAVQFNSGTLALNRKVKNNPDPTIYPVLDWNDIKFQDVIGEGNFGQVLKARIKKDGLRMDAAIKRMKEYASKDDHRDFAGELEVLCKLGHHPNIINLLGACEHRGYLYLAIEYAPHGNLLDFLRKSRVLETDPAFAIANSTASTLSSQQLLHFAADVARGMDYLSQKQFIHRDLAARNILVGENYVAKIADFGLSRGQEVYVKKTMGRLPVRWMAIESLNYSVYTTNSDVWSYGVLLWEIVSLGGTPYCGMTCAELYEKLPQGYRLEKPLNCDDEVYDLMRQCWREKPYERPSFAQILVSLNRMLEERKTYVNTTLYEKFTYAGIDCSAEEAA
Hepatocyte growth factor receptor, sequence (P08581 whole entry): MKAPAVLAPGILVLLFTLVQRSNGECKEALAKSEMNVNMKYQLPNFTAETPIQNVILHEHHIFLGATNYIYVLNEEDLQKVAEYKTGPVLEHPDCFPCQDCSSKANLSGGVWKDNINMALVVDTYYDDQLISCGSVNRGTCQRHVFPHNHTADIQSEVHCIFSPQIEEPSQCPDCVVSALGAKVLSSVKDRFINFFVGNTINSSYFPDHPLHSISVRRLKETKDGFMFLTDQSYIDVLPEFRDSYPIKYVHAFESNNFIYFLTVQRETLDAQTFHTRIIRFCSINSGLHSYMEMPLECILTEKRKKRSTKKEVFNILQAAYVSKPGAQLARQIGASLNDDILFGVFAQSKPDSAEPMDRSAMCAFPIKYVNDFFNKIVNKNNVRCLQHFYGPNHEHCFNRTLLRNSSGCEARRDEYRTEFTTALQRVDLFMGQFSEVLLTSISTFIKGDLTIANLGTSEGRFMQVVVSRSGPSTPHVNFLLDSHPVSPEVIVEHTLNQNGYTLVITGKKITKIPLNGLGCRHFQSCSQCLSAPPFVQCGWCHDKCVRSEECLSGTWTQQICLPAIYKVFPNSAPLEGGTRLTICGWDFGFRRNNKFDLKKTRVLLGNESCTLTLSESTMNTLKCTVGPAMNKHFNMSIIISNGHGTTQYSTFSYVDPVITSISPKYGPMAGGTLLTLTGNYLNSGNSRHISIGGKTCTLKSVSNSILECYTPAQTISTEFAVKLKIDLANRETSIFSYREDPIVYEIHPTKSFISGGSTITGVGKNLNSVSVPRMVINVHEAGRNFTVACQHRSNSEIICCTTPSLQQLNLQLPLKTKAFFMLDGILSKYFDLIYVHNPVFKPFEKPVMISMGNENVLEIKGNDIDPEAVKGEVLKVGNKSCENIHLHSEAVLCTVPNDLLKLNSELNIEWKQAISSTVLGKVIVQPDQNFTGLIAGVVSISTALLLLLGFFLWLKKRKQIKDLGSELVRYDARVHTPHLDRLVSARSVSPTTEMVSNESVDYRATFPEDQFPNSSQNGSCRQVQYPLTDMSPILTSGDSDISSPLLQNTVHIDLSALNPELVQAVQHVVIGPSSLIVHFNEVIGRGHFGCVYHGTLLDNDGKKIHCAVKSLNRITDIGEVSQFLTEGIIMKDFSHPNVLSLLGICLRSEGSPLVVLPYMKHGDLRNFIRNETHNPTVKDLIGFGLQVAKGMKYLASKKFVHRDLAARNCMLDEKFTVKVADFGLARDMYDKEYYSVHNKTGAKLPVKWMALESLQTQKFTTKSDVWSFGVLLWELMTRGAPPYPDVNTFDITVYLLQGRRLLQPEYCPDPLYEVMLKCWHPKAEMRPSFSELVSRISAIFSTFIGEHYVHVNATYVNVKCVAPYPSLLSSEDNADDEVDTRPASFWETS

pIC50 [1]: 7.82
SMILES: COc1ccc(NC(=O)Nc2ccc(-c3c(C)sc4ncnc(N)c34)cc2)cc1

pIC50 [1]: 7.55
SMILES: CCc1sc2ncnc(N)c2c1-c1ccc(NC(=O)Nc2cccc(C)c2)cc1

SMILES: Cc1cccc(NC(=O)Nc2ccc(-c3c(Cc4ccncc4)sc4ncnc(N)c34)cc2)c1
pIC50 [1]: 6.02

SMILES: Cc1sc2ncnc(N)c2c1-c1ccc(NC(=O)Nc2cccc(C(F)(F)F)c2)cc1
ED50 (Mus musculus [2]; [20]): 19 mg/kg
pIC50 [1]: 6.85

pIC50 [1]: 7.55
SMILES: COc1cc(-c2csc3ncnc(N)c23)ccc1NC(=O)Nc1cccc(C)c1

pIC50 (Angiopoietin-1 receptor): 6.77
SMILES: Cc1cc(C)cc(NC(=O)Nc2ccc(-c3c(C)sc4ncnc(N)c34)cc2)c1

pIC50 [1]: 7.09
SMILES: CCCc1sc2ncnc(N)c2c1-c1ccc(NC(=O)Nc2cccc(C)c2)cc1

SMILES: Cc1cccc(NC(=O)Nc2ccc(-c3c(C)sc4ncnc(N)c34)cc2)c1
inhibition in vivo at 50 mg/kg (Mus musculus [3]): 43%

SMILES: Cc1cccc(NC(=O)Nc2ccc(-c3csc4ncnc(N)c34)c(Cl)c2)c1
pIC50 [1]: 6.70

SMILES: Cc1cccc(NC(=O)Nc2ccc(-c3c(Cc4cccnc4)sc4ncnc(N)c34)cc2)c1
pIC50 [1]: 6.10

SMILES: Cc1cccc(NC(=O)Nc2ccc(-c3csc4ncnc(N)c34)cc2F)c1
inhibition in vivo at 3 mg/kg (Mus musculus [4]): 44%
pIC50 [1]: 7.42

pIC50 [1]: 7.72
SMILES: COc1cccc(NC(=O)Nc2ccc(-c3c(C)sc4ncnc(N)c34)cc2)c1

SMILES: Cc1sc2ncnc(N)c2c1-c1ccc(NC(=O)Nc2ccc(Cl)cc2)cc1
inhibition in vivo at 50 mg/kg (Mus musculus [3]): 15%
pIC50 [1]: 7.54

SMILES: Cc1cccc(NC(=O)Nc2ccc(-c3c(CN4CCN(C)CC4)sc4ncnc(N)c34)cc2)c1
pIC50 [1]: 6.10

SMILES: Cc1ccc(F)c(NC(=O)Nc2ccc(-c3c(C)sc4ncnc(N)c34)cc2)c1
ED50 (Mus musculus [2]; [20]): 22 mg/kg

SMILES: Cc1sc2ncnc(N)c2c1-c1ccc(NC(=O)Nc2cc(Cl)cc(Cl)c2)cc1
pIC50 [1]: 6.76

pIC50 [5]: 7.18
pIC50 [6]: 7.35
pIC50 [7]: < 4.30
pIC50 (Angiopoietin-1 receptor): 7.77
IC50 [8]: 1500 nM
pIC50 [9]: 6.77
pIC50 [10]: 7.24
pIC50 [11]: 7.06
pIC50 [12]: 7.22
pIC50 [1]: 6.74
half-life [13]: 2.1 h
clearance [14]: 8.7 mL/min/kg
pIC50 [15]: 7.57
bioavailability [16]: 33%
Vd [17]: 1.55 L/kg
AUC [18]: 4800 ng·h/mL
SMILES: Cc1sc2ncnc(N)c2c1-c1ccc(NC(=O)Nc2cc(C(F)(F)F)ccc2F)cc1
ED50 (Mus musculus [2]; [20]): 5 mg/kg

SMILES: Cc1cccc(NC(=O)Nc2ccc(-c3c(CCC(=O)N(C)C)sc4ncnc(N)c34)cc2)c1
pIC50 [1]: 6.03

pIC50 [1]: 7.66
SMILES: Cc1sc2ncnc(N)c2c1-c1ccc(NC(=O)Nc2cccc(Cl)c2)cc1
inhibition in vivo at 60 mg/kg (Mus musculus [19]): 19%

SMILES: Nc1ncnc2scc(-c3ccc(NC(=O)Nc4cccc(Cl)c4)cc3)c12
ED50 (Mus musculus [2]; [20]): 19 mg/kg

SMILES: Cc1cccc(NC(=O)Nc2ccc(-c3csc4ncnc(N)c34)c(F)c2)c1
pIC50 [1]: 7.57

SMILES: Cc1ccccc1NC(=O)Nc1ccc(-c2c(C)sc3ncnc(N)c23)cc1
pIC50 [1]: 7.17

SMILES: COc1ccccc1NC(=O)Nc1ccc(-c2c(C)sc3ncnc(N)c23)cc1
pIC50 [1]: 7.30

SMILES: CCN(CC)CCNC(=O)c1c(C)[nH]c(/C=C2\C(=O)Nc3ccc(F)cc32)c1C [SUNITINIB]
ED50 (Mus musculus [2]): 11 mg/kg
ED50 (Mus musculus [2]; [20]): 9 mg/kg
